From US10759740B2, “Antibacterial agents” (Rutgers, The State University of New Jersey, priority 2016, dated 2020)

Tests used:
[1] = tested on: Mobiluncus curtisii ATCC 35241; experiment: MIC broth microdilution (Example 3); assay type: cell-based; conditions: planktonic, anaerobic
Experimental: (§1) The antimicrobial activity of CAms was also tested against Peptostreptococcus anaerobius ATCC 27337, Mobiluncus curtisii ATCC 35241 and Prevotella bivia ATCC 29303, all of which, in addition to G. vaginalis, are the most commonly isolated anaerobes from BV-infected women. These anaerobes were maintained within the anaerobic chamber and transferred daily into fresh sBHI. To prepare a stock solution, the CAm compounds were dissolved in ddH2O and incubated at 37° C. with shaking at 250 rpm for 10 min. Then, the solution was serially diluted twofold with sBHI broth to determine the MIC and with BHIG broth to identify the MIC-B/MBC-B against planktonic and biofilm cells, respectively. According to Clinical and Laboratory Standards Institute (CLSI 2010), the MIC is defined as the lowest concentration of antimicrobial compound producing no visible growth or complete inhibition of bacterial growth during 24 h. To determine MIC values, the broth microdilution assay was performed according to Algburi et al. (Algburi et al., 2015. Path Dis 73(5)) with minor modifications. Briefly, the overnight-grown cells were diluted with their suitable culture medium to approach ˜10^6 CFU/ml. The number of bacterial cells was identified using spot plate method (Turovskiy et al., 2012. Infect Dis Obstet Gynecol 2012:284762). The CAms were serially diluted twofold with sBHI into a non-tissue culture 96-well microplate plate (Falcon, Corning Incorporated, Corning, N.Y., USA) resulting in a final volume of 100 μl for each well. Aliquots of 100 μl of the diluted cell suspension (˜10^6 CFU/ml) were added to each well of a microplate that was treated with different concentrations of CAms. To avoid culture medium evaporation, 75 μl of mineral oil (Sigma-Aldrich, St. Louis, Mo.) was added to each treated well. The microplate was then transferred to the plate reader (Model 550, Bio-Rad Laboratories, Hercules, Calif., USA) and incubated at 37° C. for 24-36 h. The kinetic reading was statistically analyzed, and the MIC and sub-MIC of each CAm compound were determined.

[2] = tested on: Peptostreptococcus anaerobius ATCC 27337; experiment: MIC broth microdilution (Example 3); assay type: cell-based; conditions: planktonic, anaerobic
Experimental: as §1

[3] = tested on: Prevotella bivia ATCC 29303; experiment: MIC broth microdilution (Example 3); assay type: cell-based; conditions: planktonic, anaerobic
Experimental: as §1

[4] = tested on: G. vaginalis ATCC 14019; experiment: MIC broth microdilution (Example 3); assay type: cell-based, Gardnerella vaginalis; conditions: planktonic, sBHI, anaerobic
Experimental: (§2) G. vaginalis ATCC 14019 strain was grown overnight in Brain Heart Infusion broth (Difco, Sparks, Md.) supplemented with 3% horse serum (sBHI) (JRH Biosciences, KS), while BHI supplemented with 1% glucose (BHIG) was used for biofilm formation assays. Each experiment using G. vaginalis was performed anaerobically (10% hydrogen, 5% carbon dioxide, and 85% nitrogen) within anaerobic glove boxes (Coy Laboratory Products, Inc., Grass Lake, Mich., USA). Three species of vaginal Lactobacillus were used in this study to evaluate the possible harmful effects of CAms on beneficial bacteria: Lactobacillus plantarum ATCC 39268, Lactobacillus rhamnosus 160 (provided by Dr. Aroutcheva, Rush University Medical Center) and Lactobacillus gasseri ATCC 33323; all were grown for 18-24 h in DeMan, Rogosa and Sharpe broth (MRS Difco B D, Franklin Lakes, N.J., USA) under aerobic conditions at 37° C. For lactobacilli biofilm formation, MRS broth supplemented with 1% glucose and 2% sucrose (Fisher Scientific, Waltham, Mass., USA) was utilized.
To prepare a stock solution, the CAm compounds were dissolved in ddH2O and incubated at 37° C. with shaking at 250 rpm for 10 min. Then, the solution was serially diluted twofold with sBHI broth to determine the MIC and with BHIG broth to identify the MIC-B/MBC-B against planktonic and biofilm cells, respectively.
According to Clinical and Laboratory Standards Institute (CLSI 2010), the MIC is defined as the lowest concentration of antimicrobial compound producing no visible growth or complete inhibition of bacterial growth during 24 h. To determine MIC values, the broth microdilution assay was performed according to Algburi et al. (Algburi et al., 2015. Path Dis 73(5)) with minor modifications. Briefly, the overnight-grown cells were diluted with their suitable culture medium to approach ˜10^6 CFU/ml. The number of bacterial cells was identified using spot plate method (Turovskiy et al., 2012. Infect Dis Obstet Gynecol 2012:284762). […]

[5] = tested on: L. gasseri biofilm; experiment: Minimum biofilm bactericidal concentration (MBC-B); assay type: cell-based, Lactobacillus gasseri; conditions: pre-formed biofilm, ≥3 log reduction
Experimental: as §2
This assay was performed according to Algburi et al. (Algburi et al., 2015. Path Dis 73(5)) with minor modifications: the overnight-grown G. vaginalis was diluted to approximately 10^7 CFU/ml. For the biofilm formation assay, aliquots of 200 μl were added into a 96-well tissue culture microplate, sealed by amplification tape (Nalge Nunc International, Rochester, N.Y., USA) and incubated for 24-36 h at 37° C. After incubation, the planktonic cells were removed by gently washing the biofilm twice with 200 μl of fresh broth. The biofilm was then treated with 200 μl of a predetermined concentration of the tested compound. The microplate was incubated for 24 h at 37° C. under anaerobic conditions. After incubation, the antimicrobials (supernatant) were discarded and the biofilm was washed twice with fresh BHIG broth. The biofilm was then disrupted by vigorous pipetting, in order to determine the number of biofilm-associated cells using the spot plate method.

## CCCCCCCCCCOC(C(=O)NCCN)C(OCCCCCCCCCC)C(=O)NCCN.Cl.Cl (stereo not drawn) [5b]
[1]
  MIC M. curtisii: 5.4 µM
[2]
  MIC Pep. anaerobius: 1.6 µM
[3]
  MIC P. bivia: 6.6 µM
[4]
  MIC G. vaginalis: 1.1 µM
[5]
  MBC-B L. gasseri: >850 µM

## CCCCCCCC(=O)OC(C(=O)NCCN)C(OC(=O)CCCCCCC)C(=O)NCCN.Cl.Cl (stereo not drawn) [8a]
[1]
  MIC M. curtisii: 93.1 µM
[2]
  MIC Pep. anaerobius: 13.9 µM
[3]
  MIC P. bivia: 111.6 µM
[4]
  MIC G. vaginalis: 24.4 µM
[5]
  MBC-B L. gasseri: >890 µM

## CCCCCCCCCC(=O)OC(C(=O)NCCN)C(OC(=O)CCCCCCCCC)C(=O)NCCN.Cl.Cl (stereo not drawn) [8b]
[1]
  MIC M. curtisii: 6.3 µM
[2]
  MIC Pep. anaerobius: 3.1 µM
[3]
  MIC P. bivia: 6.3 µM
[4]
  MIC G. vaginalis: 2.3 µM
[5]
  MBC-B L. gasseri: 810 µM
